Assay results taken from DBAASP.
≈ marks a conversion by molar mass, not a printed value. Where “and” joins values, the source holds several entries; their conditions need not be identical. Equal values may be shown once. Blank lines part the entries; values can stand above or below the compound they belong to.

Columns and labels:
Assay in all cases: ≥ marks a high value that may be exact or a test limit, other limits are often not marked, values filed in µg/mL are converted to µM
[1] = system: Bacillus subtilis ATCC 62037
[2] = system: Staphylococcus aureus ATCC 15752
[3] = system: Candida albicans ATCC 10231
[4] = system: Escherichia coli ATCC 27325
[5] = system: Cryptococcus neoformans ATCC 34881
[6] = system: Salmonella enterica subsp. enterica serovar Enteritidis ATCC 13076
[7] = system: Pseudomonas putida ATCC 17426
[8] = system: Streptococcus mutans ATCC 25175
[9] = system: Saccharomyces cerevisiae ATCC 44774
[10] = system: Staphylococcus aureus KCTC 1621
[11] = system: Salmonella typhimurium KCTC 1926
[12] = system: Pseudomonas aeruginosa CCARM 2109
[13] = system: Pseudomonas aeruginosa CCARM 2095
[14] = system: Staphylococcus aureus CCARM 3543
[15] = system: Staphylococcus aureus CCARM 3001
[16] = system: Staphylococcus epidermidis KCTC 1917
[17] = system: Escherichia coli KCTC 1682
[18] = system: Bacillus subtilis KCTC 3068
[19] = system: Pseudomonas aeruginosa KCTC 1637
[20] = system: Streptococcus gordonii DL1
Streptococcus mutans T8 = system: Streptococcus mutans T8
[21] = system: Streptococcus mutans comD
[22] = system: Streptococcus sanguinis ATCC 10556
[23] = system: Streptococcus mutans ATCC 104495
[24] = system: Streptococcus salivarius K12
[25] = system: Streptococcus sanguinis NY101
[26] = system: Streptococcus gordonii ATCC 10558
[27] = system: Streptococcus mutans UA140
[28] = system: Streptococcus mutans UA159
[29] = system: Staphylococcus epidermidis ATCC 12228
[30] = system: Shigella dysenteriae ATCC 9752
[31] = system: Staphylococcus aureus ATCC 6538P
[32] = system: Pseudomonas aeruginosa ATCC 27853
[33] = system: Klebsiella pneumoniae ATCC 10031
[34] = system: Escherichia coli ATCC 25922
[35] = system: Micrococcus luteus ATCC 10240
[36] = system: Staphylococcus aureus TK784
[37] = system: Bacillus subtilis ATCC 6633
[38] = system: Salmonella enterica subsp. enterica serovar Typhimurium ATCC 14028
[39] = system: Staphylococcus aureus ATCC 6538
[40] = system: Shigella flexneri ATCC 203
[41] = system: Streptococcus pyogenes 77A
[42] = system: Candida albicans ATCC 36232
Staphylococcus aureus = system: Staphylococcus aureus
[43] = system: Escherichia coli ATCC 2592
[44] = system: Staphylococcus aureus SG501
[45] = system: Corynebacterium diphtheriae ATCC 8032
[46] = system: Proteus vulgaris ATCC 6380
[47] = system: Pseudomonas aeruginosa ATCC 9027
[48] = system: Corynebacterium diphtheriae ATCC 8024
[49] = system: Streptococcus pyogenes 308A
[50] = system: Micrococcus luteus ATCC 9341
[51] = system: Bacillus subtilis ATCC 1768

MIC [1]: ≥ 68.4 µM
MIC [2]: ≥ 68.4 µM
MIC [3]: > 68.4 µM
MIC [4]: ≥ 68.4 µM
MIC [5]: ≥ 68.4 µM
MIC [6]: ≥ 68.4 µM
MIC [7]: ≥ 68.4 µM
MIC [8]: ≥ 68.4 µM
MIC [9]: ≥ 68.4 µM
SMILES: CC(C)[C@H](NC(=O)[C@H](CCCCN)NC(=O)CNC(=O)CNC(=O)[C@H](CCC(N)=O)NC(=O)[C@H](CCCCN)NC(=O)CNC(=O)[C@H](CCCN=C(N)N)NC(=O)CN)C(=O)N[C@@H](CCCN=C(N)N)C(=O)N[C@@H](C)C(=O)N[C@@H](CCCCN)C(=O)N[C@@H](C)C(=O)N[C@@H](CCCCN)C(=O)N[C@H](C(=O)N[C@@H](CCCN=C(N)N)C(=O)N[C@@H](CO)C(=O)N[C@@H](CO)C(=O)O)[C@@H](C)O [GRGKQGGKVRAKAKTRSS]

MIC [10]: ≥ 32 µM
MIC [11]: ≥ 32 µM
MIC [12]: ≥ 64 µM
MIC [13]: ≥ 64 µM
MIC [14]: ≥ 32 µM
MIC [15]: ≥ 64 µM
MIC [16]: ≥ 32 µM
MIC [17]: ≥ 32 µM
MIC [18]: ≥ 32 µM
MIC [19]: 16 µM (≈ 24.2 µg/mL)
SMILES: CC(C)C[C@H](NC(=O)[C@H](CC(C)C)NC(=O)[C@H](Cc1c[nH]c2ccccc12)NC(=O)[C@H](CCCCN)NC(=O)[C@H](CC(C)C)NC(=O)[C@H](Cc1c[nH]c2ccccc12)NC(=O)[C@H](CC(C)C)NC(=O)[C@H](CC(C)C)NC(=O)[C@H](Cc1c[nH]c2ccccc12)NC(=O)[C@H](CC(C)C)NC(=O)[C@@H](N)CCCCN)C(N)=O [KLWLLWLKWLL]

MIC [20]: ≥ 41.3 µM
MIC (Streptococcus mutans T8): 14.2 µM (≈ 28.3 µg/mL)
MIC [21]: 15.3 µM (≈ 30.5 µg/mL)
MIC [22]: ≥ 50 µM
MIC [23]: ≥ 33.3 µM
MIC [24]: 16.7 µM (≈ 33.3 µg/mL)
MIC [25]: ≥ 33.6 µM
MIC [8]: 14.8 µM (≈ 29.5 µg/mL)
MIC [26]: ≥ 50 µM
MIC [27]: ≥ 33.3 µM
MIC [28]: 12.1 µM (≈ 24.1 µg/mL)
SMILES: CC[C@H](C)[C@H](NC(=O)CNC(=O)[C@H](CCCCN)NC(=O)[C@H](CCCN=C(N)N)NC(=O)[C@@H](NC(=O)[C@@H](NC(=O)[C@H](CCCN=C(N)N)NC(=O)[C@H](CC(C)C)NC(=O)[C@H](CC(N)=O)NC(=O)[C@@H](N)CCCCN)[C@@H](C)CC)[C@@H](C)CC)C(=O)N[C@@H](Cc1cnc[nH]1)C(=O)N[C@H](C(=O)N[C@H](C(=O)N[C@@H](CCCCN)C(=O)N[C@@H](CCCCN)C(=O)N[C@@H](Cc1ccc(O)cc1)C(N)=O)[C@@H](C)CC)[C@@H](C)CC [KNLRIIRKGIHIIKKY]

MIC [29]: 4.07 µM (≈ 5 µg/mL)
MIC [30]: ≥ 32.6 µM
MIC [31]: 2.04 µM (≈ 2.5 µg/mL)
MIC [32]: 32.6 µM (≈ 40 µg/mL)
MIC [33]: 16.3 µM (≈ 20 µg/mL)
MIC [34]: 4.07 µM (≈ 5 µg/mL)
MIC [35]: 8.15 µM (≈ 9.99 µg/mL)
MIC [36]: 16.3 µM (≈ 20 µg/mL)
MIC [37]: 4.07 µM (≈ 5 µg/mL)
MIC [38]: 32.6 µM (≈ 40 µg/mL)
SMILES: CC(C)C[C@H](NC(=O)[C@H](Cc1c[nH]c2ccccc12)NC(=O)[C@H](CCCCN)NC(=O)[C@H](CC(C)C)NC(=O)[C@H](CC(C)C)NC(=O)[C@H](Cc1c[nH]c2ccccc12)NC(=O)[C@H](CCCCN)NC(=O)[C@@H](N)CC(C)C)C(=O)N[C@@H](CCCCN)C(N)=O [LKWLLKWLK]

MIC [39]: 1.38 µM
MIC [40]: 6.6 µM
MIC [29]: 1.76 µM
MIC [41]: 0.22 µM
MIC [42]: 22 µM
MIC (Staphylococcus aureus): 5.5 µM
MIC [43]: 22 µM
MIC [44]: 0.176 µM
MIC [45]: 1.32 µM
MIC [46]: 6.6 µM
MIC [35]: 1.1 µM
MIC [47]: > 22 µM
MIC [48]: 1.76 µM
MIC [37]: 0.22 µM
MIC [49]: 0.352 µM
MIC [50]: 0.686 µM and 1.76 µM
MIC [51]: 0.44 µM
SMILES: CC[C@H](C)[C@@H]1NC(=O)[C@H](CC(=O)O)NC(=O)[C@@H](NC(=O)[C@@H](NC(=O)[C@@H](N)C(C)C)[C@@H](C)O)CSSC[C@@H]2NC(=O)[C@H](Cc3ccc(O)cc3)NC(=O)CNC(=O)CNC(=O)[C@H](CO)NC(=O)[C@H](CCCN=C(N)N)NC(=O)CNC(=O)[C@H](CCCN=C(N)N)NC(=O)[C@H](Cc3ccccc3)NC(=O)[C@H](CC(C)C)NC(=O)[C@@H]3CSSC[C@@H](C(=O)N[C@@H](CCCN=C(N)N)C(=O)O)NC(=O)[C@H](C(C)C)NC(=O)[C@H](CSSC[C@H](NC(=O)[C@H](C)NC(=O)[C@H](C)NC(=O)[C@H](CC(=O)O)NC(=O)[C@H](CC(N)=O)NC(=O)[C@H](CC(C)C)NC(=O)[C@H](CCCCN)NC(=O)[C@H](C(C)C)NC(=O)CNC(=O)[C@H](CCCCN)NC(=O)[C@H](C)NC(=O)[C@H](CCC(=O)O)NC(=O)[C@H](C(C)C)NC(=O)[C@H](CO)NC(=O)[C@H](CC(C)C)NC1=O)C(=O)N[C@@H](C)C(=O)N[C@@H](C)C(=O)N[C@@H](Cc1cnc[nH]1)C(=O)N3)NC(=O)[C@H](C(C)C)NC(=O)[C@H](CCCN=C(N)N)NC(=O)[C@H](CCCCN)NC(=O)CNC(=O)[C@H](CC(N)=O)NC2=O [VTCDILSVEAKGVKLNDAACAAHCLFRGRSGGYCNGKRVCVCR]
